From US12384771B2, “Pleuromutilin derivative containing thiazole-pyridine benzyl quaternary ammonium salt side chain and preparation method and use thereof” (SHAANXI UNIVERSITY OF SCIENCE AND TECHNOLOGY, priority 2022, dated 2025)
In brackets after ≈: the same amount, converted by molar mass. Structures can show the parent of a compound that is named as a salt. Where two headings read alike, the source gives them in different places. Each block holds one compound with its values, some of them ahead of it.

Key:
[1] = system: Staphylococcus aureus ATCC 25923; test: MIC, microbroth dilution, standard strains; format: cell-based
Procedure: (§1) The minimum inhibitory concentration (MIC) of the pleuromutilin derivative containing thiazole-pyridine benzyl quaternary ammonium salt side chain was tested with moxifloxacin as a positive control (purchased from Shanghai Macklin Biochemical Technology Co., Ltd.) using a microbroth dilution method.
(§2) Standard strains include gram-positive bacteria: Staphylococcus epidermidis ATCC 12228, Staphylococcus aureus ATCC 29213, ATCC 25923 and methicillin-resistant Staphylococcus aureus ATCC 33591; gram-negative bacteria: Salmonella ATCC 14028, Acinetobacter baumannii ATCC 19606, Escherichia coli ATCC 25922 and CMCC 44103, all the strains were purchased from the American Type Culture Collection.

[2] = system: Staphylococcus epidermidis ATCC 12228; test: MIC, microbroth dilution, standard strains; format: cell-based
Procedure: as §1, §2

[3] = system: Acinetobacter baumannii ATCC 19606; test: MIC, microbroth dilution, standard strains; format: cell-based
Procedure: as §1, §2

[4] = system: Staphylococcus aureus ATCC 29213; test: MIC, microbroth dilution, standard strains; format: cell-based
Procedure: as §1, §2

[5] = system: Escherichia coli CMCC 44103; test: MIC, microbroth dilution, standard strains; format: cell-based
Procedure: as §1, §2

[6] = system: methicillin-resistant Staphylococcus aureus ATCC 33591; test: MIC, microbroth dilution, standard strains; format: cell-based
Procedure: as §1, §2

[7] = system: Escherichia coli ATCC 25922; test: MIC, microbroth dilution, standard strains; format: cell-based
Procedure: as §1, §2

[8] = system: Salmonella ATCC 14028; test: MIC, microbroth dilution, standard strains; format: cell-based
Procedure: as §1, §2

[9] = system: methicillin-resistant Staphylococcus aureus (MRSA) 18-171; test: MIC, clinical drug-resistant bacteria; format: cell-based
Procedure: (§3) The minimum inhibitory concentration (MIC) of the pleuromutilin derivative containing thiazole-pyridine benzyl quaternary ammonium salt side chain was tested with moxifloxacin as a positive control (purchased from Shanghai Macklin Biochemical Technology Co., Ltd.) using a microbroth dilution method. At the same time, the pleuromutilin derivative containing thiazole-pyridine benzyl quaternary ammonium salt side chain of the invention was compared with the marketed pleuromutilin antibiotics, such as retapamulin (purchased from Nanjing Chemlin Chemical Industry Co., Ltd.), tiamulin (purchased from Shanghai Yuanye Bio-Technology Co., Ltd) and valnemulin (purchased from Shanghai Acmec Biochemical Co., Ltd), in order to screen out pleuromutilin derivatives with better activity.
(§4) Clinical resistant bacteria include multidrug-resistant Pseudomonas aeruginosa (MDR-PA) 18-993, 18-756 and 18-126, multidrug-resistant Klebsiella pneumoniae (MDR-KP) 18-893, 18-754 and 18-1482, methicillin-resistant Staphylococcus aureus (MRSA) 18-171, 18-209 and 18-575, vancomycin-resistant Enterococcus faecalis (VRE) 18-94, 18-80 and 18-507, and carbapenem-resistant Acinetobacter baumannii (CR-AB) 18-184, 18-560 and 18-882, all the clinical drug-resistant strains were from Huashan Hospital, Fudan University.

[10] = system: methicillin-resistant Staphylococcus aureus (MRSA) 18-575; test: MIC, clinical drug-resistant bacteria; format: cell-based
Procedure: as §3, §4

[11] = system: vancomycin-resistant Enterococcus faecalis (VRE) 18-80; test: MIC, clinical drug-resistant bacteria; format: cell-based; details: read-out: Minimum inhibitory concentration against clinical drug-resistant bacteria
Procedure: as §3, §4

[12] = system: multidrug-resistant Klebsiella pneumoniae (MDR-KP) 18-1482; test: MIC, clinical drug-resistant bacteria; format: cell-based
Procedure: as §3, §4

[13] = system: multidrug-resistant Pseudomonas aeruginosa (MDR-PA) 18-756; test: MIC, clinical drug-resistant bacteria; format: cell-based
Procedure: as §3, §4

[14] = system: multidrug-resistant Pseudomonas aeruginosa (MDR-PA) 18-126; test: MIC, clinical drug-resistant bacteria; format: cell-based
Procedure: as §3, §4

[15] = system: multidrug-resistant Klebsiella pneumoniae (MDR-KP) 18-754; test: MIC, clinical drug-resistant bacteria; format: cell-based
Procedure: as §3, §4

[16] = system: carbapenem-resistant Acinetobacter baumannii (CR-AB) 18-184; test: MIC, clinical drug-resistant bacteria; format: cell-based
Procedure: as §3, §4

[17] = system: multidrug-resistant Pseudomonas aeruginosa (MDR-PA) 18-993; test: MIC, clinical drug-resistant bacteria; format: cell-based
Procedure: as §3, §4

[18] = system: carbapenem-resistant Acinetobacter baumannii (CR-AB) 18-560; test: MIC, clinical drug-resistant bacteria; format: cell-based
Procedure: as §3, §4

[19] = system: vancomycin-resistant Enterococcus faecalis (VRE) 18-94; test: MIC, clinical drug-resistant bacteria; format: cell-based; details: read-out: Minimum inhibitory concentration against clinical drug-resistant bacteria
Procedure: as §3, §4

[20] = system: multidrug-resistant Klebsiella pneumoniae (MDR-KP) 18-893; test: MIC, clinical drug-resistant bacteria; format: cell-based
Procedure: as §3, §4

[21] = system: methicillin-resistant Staphylococcus aureus (MRSA) 18-209; test: MIC, clinical drug-resistant bacteria; format: cell-based
Procedure: as §3, §4

[22] = system: carbapenem-resistant Acinetobacter baumannii (CR-AB) 18-882; test: MIC, clinical drug-resistant bacteria; format: cell-based
Procedure: as §3, §4

[23] = system: vancomycin-resistant Enterococcus faecalis (VRE) 18-507; test: MIC, clinical drug-resistant bacteria; format: cell-based; details: read-out: Minimum inhibitory concentration against clinical drug-resistant bacteria
Procedure: as §3, §4

[24] = physchem; details: thermodynamic from solid
Procedure: Experimental method: representative compounds 2, 4 and 7 were selected for solubility determination, and retapamulin hydrochloride was used as a control. 1 mg of each sample was taken and quantitatively dissolved in a 10 mL volumetric flask, and the absorption peak area was measured by a high-performance liquid chromatography; then, the saturated solutions of the representative compounds 2, 4 and 7 and the control drug retapamulin were diluted 10-fold, and the absorption peak area was determined by HPLC; their respective solubility was obtained by calculating the absorption peak area.
The experimental instrument was Shimadzu LC-16, the chromatographic column was Hypersil C18 ODS (4.6×250 mm×5 μm), the flow rate was 1.0 mL/min, the detection wavelength was 300 nm, and the mobile phase was 0.05 mol/L of aqueous acetic acid solution:acetonitrile=30:70.

[25] = MRSA, read-out: Minimum inhibitory concentration against clinical drug-resistant bacteria
[26] = read-out: Minimum inhibitory concentration against clinical drug-resistant bacteria
[27] = pH 1.5, simulated gastric fluid
[28] = ATCC25923, ATCC 25923, read-out: Minimum inhibitory concentration
[29] = ATCC12228, ATCC 12228, read-out: Minimum inhibitory concentration
[30] = ATCC19606, ATCC 19606, read-out: Minimum inhibitory concentration
[31] = ATCC29213, ATCC 29213, read-out: Minimum inhibitory concentration
[32] = CMCC44103, CMCC 44103, read-out: Minimum inhibitory concentration
[33] = ATCC33591, ATCC 33591, read-out: Minimum inhibitory concentration
[34] = ATCC25922, ATCC 25922, read-out: Minimum inhibitory concentration
[35] = ATCC14028, ATCC 14028, read-out: Minimum inhibitory concentration
[36] = MRSA 18-171, read-out: Minimum inhibitory concentration against clinical drug-resistant bacteria
[37] = MRSA 18-575, read-out: Minimum inhibitory concentration against clinical drug-resistant bacteria
[38] = MDR-KP 18-1482, read-out: Minimum inhibitory concentration against clinical drug-resistant bacteria
[39] = MDR-PA 18-756, read-out: Minimum inhibitory concentration against clinical drug-resistant bacteria
[40] = MDR-PA 18-126, read-out: Minimum inhibitory concentration against clinical drug-resistant bacteria
[41] = MDR-KP 18-754, read-out: Minimum inhibitory concentration against clinical drug-resistant bacteria
[42] = CR-AB 18-184, read-out: Minimum inhibitory concentration against clinical drug-resistant bacteria
[43] = MDR-PA 18-993, read-out: Minimum inhibitory concentration against clinical drug-resistant bacteria
[44] = CR-AB 18-560, read-out: Minimum inhibitory concentration against clinical drug-resistant bacteria
[45] = MDR-KP 18-893, read-out: Minimum inhibitory concentration against clinical drug-resistant bacteria
[46] = MRSA 18-209, read-out: Minimum inhibitory concentration against clinical drug-resistant bacteria
[47] = CR-AB 18-882, read-out: Minimum inhibitory concentration against clinical drug-resistant bacteria

Compound: C=C[C@]1(C)C[C@@H](OC(=O)CS[C@@H]2C[C@H]3CC[C@@H](C2)N3C)[C@]2(C)[C@H](C)CC[C@]3(CCC(=O)[C@H]32)[C@@H](C)[C@@H]1O [Retapamulin, retapamulin, reference compound]
- MIC ([1]; ATCC25923, read-out: Minimum inhibitory concentration): 4 µg/mL (≈ 7.73 µM)
- MIC ([2]; ATCC12228, read-out: Minimum inhibitory concentration): 32 µg/mL (≈ 61.8 µM)
- MIC ([3]; ATCC19606, read-out: Minimum inhibitory concentration): 16 µg/mL (≈ 30.9 µM)
- MIC ([4]; ATCC29213, read-out: Minimum inhibitory concentration): 4 µg/mL (≈ 7.73 µM)
- MIC ([5]; CMCC44103, read-out: Minimum inhibitory concentration): 32 µg/mL (≈ 61.8 µM)
- MIC ([6]; ATCC33591, read-out: Minimum inhibitory concentration): 32 µg/mL (≈ 61.8 µM)
- MIC ([7]; ATCC25922, read-out: Minimum inhibitory concentration): 32 µg/mL (≈ 61.8 µM)
- MIC ([8]; ATCC14028, read-out: Minimum inhibitory concentration): 128 µg/mL (≈ 247 µM)
- MIC [9, 25]: 128 µg/mL (≈ 247 µM)
- MIC [10, 25]: > 128 µg/mL
- MIC [11]: > 128 µg/mL
- MIC [12, 26]: 64 µg/mL (≈ 124 µM)
- MIC [13, 26]: > 128 µg/mL
- MIC [14, 26]: 128 µg/mL (≈ 247 µM)
- MIC [15, 26]: 128 µg/mL (≈ 247 µM)
- MIC [16, 26]: 128 µg/mL (≈ 247 µM)
- MIC [17, 26]: 128 µg/mL (≈ 247 µM)
- MIC [18, 26]: 128 µg/mL (≈ 247 µM)
- MIC [19]: > 128 µg/mL
- MIC [20, 26]: 64 µg/mL (≈ 124 µM)
- MIC [21, 25]: 128 µg/mL (≈ 247 µM)
- MIC [22, 26]: 64 µg/mL (≈ 124 µM)
- MIC [23]: > 128 µg/mL

- solubility ([24]; organic solvent or mixture): 13200 µg/mL
- solubility [24, 27]: 2760 µg/mL
- solubility ([24]; pH 7, water): 2020 µg/mL
- MIC [1, 28]: 0.0625 µg/mL
- MIC [2, 29]: 1 µg/mL
- MIC [3, 30]: 1 µg/mL
- MIC [4, 31]: 0.0625 µg/mL
- MIC [5, 32]: 0.5 µg/mL
- MIC [6, 33]: 1 µg/mL
- MIC [7, 34]: 0.0625 µg/mL
- MIC [8, 35]: 2 µg/mL
- MIC [9, 36]: 4 µg/mL
- MIC [10, 37]: > 128 µg/mL
- MIC ([11]; VRE 18-80): 2 µg/mL
- MIC [12, 38]: 64 µg/mL
- MIC [13, 39]: 128 µg/mL
- MIC [14, 40]: 64 µg/mL
- MIC [15, 41]: 32 µg/mL
- MIC [16, 42]: 16 µg/mL
- MIC [17, 43]: 128 µg/mL
- MIC [18, 44]: > 128 µg/mL
- MIC ([19]; VRE 18-94): > 128 µg/mL
- MIC [20, 45]: 16 µg/mL
- MIC [21, 46]: 128 µg/mL
- MIC [22, 47]: 8 µg/mL
- MIC ([23]; VRE 18-507): > 128 µg/mL
Compound: C=C[C@]1(C)C[C@@H](OC(=O)CSc2nc(-c3cc[n+](Cc4ccc(C)cc4)cc3)cs2)[C@]2(C)[C@H](C)CC[C@]3(CCC(=O)[C@H]32)[C@@H](C)[C@@H]1O [Compound 2, 1-(4-Methylbenzyl)-4-(2-((2-((8-hydroxy-4,7,9,12-tetramethyl-3-oxo-7-vinyldecahydro-4,9a-propancyclopent[8]cyclen-5-yl)oxy)-2-oxoethyl)thio)thiazol-4-yl)pyridyl bromide salt]

- solubility ([24]; organic solvent or mixture): 11900 µg/mL
- solubility [24, 27]: 3120 µg/mL
- solubility ([24]; pH 7, water): 2320 µg/mL
- MIC [1, 28]: 0.5 µg/mL
- MIC [2, 29]: 1 µg/mL
- MIC [3, 30]: 2 µg/mL
- MIC [4, 31]: 0.5 µg/mL
- MIC [5, 32]: 1 µg/mL
- MIC [6, 33]: 1 µg/mL
- MIC [7, 34]: 0.5 µg/mL
- MIC [8, 35]: 0.5 µg/mL
- MIC [9, 36]: 16 µg/mL
- MIC [10, 37]: > 128 µg/mL
- MIC ([11]; VRE 18-80): 2 µg/mL
- MIC [12, 38]: 64 µg/mL
- MIC [13, 39]: > 128 µg/mL
- MIC [14, 40]: 64 µg/mL
- MIC [15, 41]: 32 µg/mL
- MIC [16, 42]: 64 µg/mL
- MIC [17, 43]: 64 µg/mL
- MIC [18, 44]: > 128 µg/mL
- MIC ([19]; VRE 18-94): > 128 µg/mL
- MIC [20, 45]: 64 µg/mL
- MIC [21, 46]: 128 µg/mL
- MIC [22, 47]: 8 µg/mL
- MIC ([23]; VRE 18-507): > 128 µg/mL
Compound: C=C[C@]1(C)C[C@@H](OC(=O)CSc2nc(-c3cc[n+](Cc4ccc(OC)cc4)cc3)cs2)[C@]2(C)[C@H](C)CC[C@]3(CCC(=O)[C@H]32)[C@@H](C)[C@@H]1O [Compound 4, 1-(4-(methoxy)benzyl)-4-(2-(8-hydroxy-4,7,9,12-tetramethyl-3-oxo-7-vinyldecahydro-4,9a-propancyclopent[8]cyclen-5-yl)oxy)-2-oxoethyl)thiazol-4-yl)pyridyl bromide salt]

Compound: C=C[C@]1(C)C[C@@H](OC(=O)CS[C@@H]2C[C@H]3CC[C@@H](C2)N3C)[C@]2(C)[C@H](C)CC[C@]3(CCC(=O)[C@H]32)[C@@H](C)[C@@H]1O [Retapamulin hydrochloride, retapamulin hydrochloride, reference compound]
- solubility ([24]; organic solvent or mixture): 1150 µg/mL
- solubility [24, 27]: 230 µg/mL
- solubility ([24]; pH 7, water): 120 µg/mL
